{
  "source": "patent US11530237B2",
  "about": "“Compositions and methods for treating CNS disorders” (Sage Therapeutics, Inc., priority 2014, dated 2022)",
  "target": "[35S]-TBPS binding, rat brain cortical membranes",
  "assay": "Steroid inhibition of TBPS binding ([35S]-TBPS radioligand displacement)",
  "conditions": "3 nM [35S]-TBPS, 5 μM GABA",
  "method": "TBPS binding assays using rat brain cortical membranes in the presence of 5 μM GABA has been described (Gee et al, J. Pharmacol. Exp. Then 1987, 241, 346-353; Hawkinson et al, Mol. Pharmacol. 1994, 46, 977-985; Lewin, A. H et al., Mol. Pharmacol. 1989, 35, 189-194).\nBriefly, cortices are rapidly removed following decapitation of carbon dioxide-anesthetized Sprague-Dawley rats (200-250 g). The cortices are homogenized in 10 volumes of […] using a glass/teflon homogenizer and centrifuged at 1500×g for 10 min at 4° C. The resultant supernatants are centrifuged at 10,000×g for 20 min at 4° C. to obtain the P2 pellets. The P2 pellets are resuspended in 200 mM NaCl/50 mM Na—K phosphate pH 7.4 buffer and centrifuged at 10,000×g for 10 min at 4° C. This washing procedure is repeated twice and the pellets are resuspended in 10 volumes of buffer. Aliquots (100 μL) of the membrane suspensions are incubated with 3 nM [^35S]-TBPS and 5 μL aliquots of test drug dissolved in dimethyl sulfoxide (DMSO) (final 0.5%) in the presence of 5 μM GABA. The incubation is brought to a final volume of 1.0 mL with buffer. […] Following a 90 min incubation at room temp, the assays are terminated by filtration through glass fiber filters (Schleicher and Schuell No. 32) using a cell harvester (Braudel) and rinsed three times with ice-cold buffer. Filter bound radioactivity is measured by liquid scintillation spectrometry. Non-linear curve fitting of the overall data for each drug averaged for each concentration is done using Prism (GraphPad).\nVarious compounds are or can be screened to determine their potential as modulators of [^35S]-TBPS binding in vitro. These assays are or can be performed in accordance with the above discussed procedures.",
  "data": [
    {"molecule": "CC(C(=O)[C@H]1CC[C@H]2[C@@H]3CC[C@@H]4C[C@](C)(O)CC[C@]4(C)[C@H]3CC[C@]12C)n1ccnn1", "note": "(stereo in doubt) [Compound 58, (R)-1-((3R,5R,8R,9S,10S,13S,14S,17S)-3-hydroxy-3,10,13-trimethylhexadecahydro-1H-cyclopenta[a]phenanthren-17-yl)-2-(1H-1,2,3-triazol-1-yl)propan-1-one]", "values": [
      {"measurement": "IC50", "result": "> 500", "unit": "nM"}
    ]},
    {"molecule": "CC(C(=O)[C@H]1CC[C@H]2[C@@H]3CC[C@@H]4C[C@](C)(O)CC[C@]4(C)[C@H]3CC[C@]12C)n1nc2ccccc2n1", "note": "(stereo in doubt) [Compound 61, (S)-2-(2H-benzo[d][1,2,3]triazol-2-yl)-1-((3R,5R,8R,9S,10S,13S,14S,17S)-3-hydroxy-3,10,13-trimethylhexadecahydro-1H-cyclopenta[a]phenanthren-17-yl)propan-1-one]", "values": [
      {"measurement": "IC50", "result": "100 to 500", "unit": "nM"}
    ]},
    {"molecule": "CC(C(=O)[C@H]1CC[C@H]2[C@@H]3CC[C@@H]4C[C@](C)(O)CC[C@]4(C)[C@H]3CC[C@]12C)n1nnc2ccccc21", "note": "(stereo in doubt) [Compound 63, (S)-2-(1H-benzo[d][1,2,3]triazol-1-yl)-1-((3R,5R,8R,9S,10S,13S,14S,17S)-3-hydroxy-3,10,13-trimethylhexadecahydro-1H-cyclopenta[a]phenanthren-17-yl)propan-1-one]", "values": [
      {"measurement": "IC50", "result": "10 to 50", "unit": "nM"}
    ]},
    {"molecule": "C[C@@]1(O)CC[C@@]2(C)C(CC[C@H]3[C@@H]4CC[C@H](C(=O)Cn5nc6ccc(S(C)(=O)=O)cc6n5)[C@@]4(C)CC[C@@H]32)C1", "note": "(stereo in doubt) [Compound 104, 1-((3R,5R,8R,9S,10S,13S,14S,17S)-3-hydroxy-3,10,13-trimethylhexadecahydro-1H-cyclopenta[a]phenanthren-17-yl)-2-(5-(methylsulfonyl)-2H-benzo[d][1,2,3]triazol-2-yl)ethanone]", "values": [
      {"measurement": "IC50", "result": "< 10", "unit": "nM"}
    ]},
    {"molecule": "C[C@@]1(O)CC[C@@]2(C)[C@H](CC[C@@H]3[C@@H]2CC[C@]2(C)[C@@H](C(=O)Cn4cc(C#N)cn4)CC[C@@H]32)C1", "note": "[Compound 10, 1-(2-((3R,5R,8R,9S,10S,13S,14S,17S)-3-hydroxy-3,10,13-trimethylhexadecahydro-1H-cyclopenta[a]phenanthren-17-yl)-2-oxoethyl)-1H-pyrazole-4-carbonitrile]", "values": [
      {"measurement": "IC50", "result": "< 10", "unit": "nM"}
    ]},
    {"molecule": "C[C@@]1(O)CC[C@@]2(C)[C@H](CC[C@@H]3[C@@H]2CC[C@]2(C)[C@@H](C(=O)CN4CCOCC4)CC[C@@H]32)C1", "note": "[Compound 43, 1-((3R,5R,8R,9S,10S,13S,14S,17S)-3-hydroxy-3,10,13-trimethylhexadecahydro-1H-cyclopenta[a]phenanthren-17-yl)-2-morpholinoethanone]", "values": [
      {"measurement": "IC50", "result": "100 to 500", "unit": "nM"}
    ]},
    {"molecule": "C[C@@H](C(=O)[C@H]1CC[C@H]2[C@@H]3CC[C@@H]4C[C@](C)(O)CC[C@]4(C)[C@H]3CC[C@]12C)n1nccn1", "note": "[Compound 57, (S)-1-((3R,5R,8R,9S,10S,13S,14S,17S)-3-hydroxy-3,10,13-trimethylhexadecahydro-1H-cyclopenta[a]phenanthren-17-yl)-2-(2H-1,2,3-triazol-2-yl)propan-1-one]", "values": [
      {"measurement": "IC50", "result": "100 to 500", "unit": "nM"}
    ]},
    {"molecule": "C[C@@H](C(=O)[C@H]1CC[C@H]2[C@@H]3CC[C@@H]4C[C@](C)(O)CC[C@]4(C)[C@H]3CC[C@]12C)n1ccnn1", "note": "[Compound 59, (S)-1-((3R,5R,8R,9S,10S,13S,14S,17S)-3-hydroxy-3,10,13-trimethylhexadecahydro-1H-cyclopenta[a]phenanthren-17-yl)-2-(1H-1,2,3-triazol-1-yl)propan-1-one]", "values": [
      {"measurement": "IC50", "result": "100 to 500", "unit": "nM"}
    ]},
    {"molecule": "C[C@H](C(=O)[C@H]1CC[C@H]2[C@@H]3CC[C@@H]4C[C@](C)(O)CC[C@]4(C)[C@H]3CC[C@]12C)n1nc2ccccc2n1", "note": "[Compound 60, (R)-2-(2H-benzo[d][1,2,3]triazol-2-yl)-1-((3R,5R,8R,9S,10S,13S,14S,17S)-3-hydroxy-3,10,13-trimethylhexadecahydro-1H-cyclopenta[a]phenanthren-17-yl)propan-1-one]", "values": [
      {"measurement": "IC50", "result": "10 to 50", "unit": "nM"}
    ]},
    {"molecule": "C[C@H](C(=O)[C@H]1CC[C@H]2[C@@H]3CC[C@@H]4C[C@](C)(O)CC[C@]4(C)[C@H]3CC[C@]12C)n1nnc2ccccc21", "note": "[Compound 62, (R)-2-(1H-benzo[d][1,2,3]triazol-1-yl)-1-((3R,5R,8R,9S,10S,13S,14S,17S)-3-hydroxy-3,10,13-trimethylhexadecahydro-1H-cyclopenta[a]phenanthren-17-yl)propan-1-one]", "values": [
      {"measurement": "IC50", "result": "100 to 500", "unit": "nM"}
    ]},
    {"molecule": "C[C@H](C(=O)[C@H]1CC[C@H]2[C@@H]3CC[C@@H]4C[C@](C)(O)CC[C@]4(C)[C@H]3CC[C@]12C)n1cc(C#N)cn1", "note": "[Compound 72, 1-((R)-1-((3R,5R, 8R, 9S, 10S, 13S, 14S, 17S)-3-hydroxy-3,10,13-trimethylhexadecahydro-1H-cyclopenta[a]phenanthren-17-yl)-1-oxopropan-2-yl)-1H-pyrazole-4-carbonitrile]", "values": [
      {"measurement": "IC50", "result": "10 to 50", "unit": "nM"}
    ]},
    {"molecule": "C[C@@H](C(=O)[C@H]1CC[C@H]2[C@@H]3CC[C@@H]4C[C@](C)(O)CC[C@]4(C)[C@H]3CC[C@]12C)n1cc(C#N)cn1", "note": "[Compound 73, 1-((S)-1-((3R,5R,8R,9S,10S,13S,14S,17S)-3-hydroxy-3,10,13-trimethylhexadecahydro-1H-cyclopenta[a]phenanthren-17-yl)-1-oxopropan-2-yl)-1H-pyrazole-4-carbonitrile]", "values": [
      {"measurement": "IC50", "result": "10 to 50", "unit": "nM"}
    ]},
    {"molecule": "C[C@H](C(=O)[C@H]1CC[C@H]2[C@@H]3CC[C@H]4C[C@](C)(O)CC[C@]4(C)[C@H]3CC[C@]12C)n1cc(C#N)cn1", "note": "[Compound 80, 1-((R)-1-((3R,5S,8R,9S,10S,13S,14S,17S)-3-hydroxy-3,10,13-trimethylhexadecahydro-1H-cyclopenta[a]phenanthren-17-yl)-1-oxopropan-2-yl)-1H-pyrazole-4-carbonitrile]", "values": [
      {"measurement": "IC50", "result": "100 to 500", "unit": "nM"}
    ]},
    {"molecule": "C[C@@H](C(=O)[C@H]1CC[C@H]2[C@@H]3CC[C@H]4C[C@](C)(O)CC[C@]4(C)[C@H]3CC[C@]12C)n1cc(C#N)cn1", "note": "[Compound 81, 1-((S)-1-((3R,5S,8R,9S,10S,13S,14S,17S)-3-hydroxy-3,10,13-trimethylhexadecahydro-1H-cyclopenta[a]phenanthren-17-yl)-1-oxopropan-2-yl)-1H-pyrazole-4-carbonitrile]", "values": [
      {"measurement": "IC50", "result": "10 to 50", "unit": "nM"}
    ]},
    {"molecule": "CN(C)C(=O)c1cnn(CC(=O)[C@H]2CC[C@H]3[C@@H]4CC[C@@H]5C[C@](C)(O)CC[C@]5(C)[C@H]4CC[C@]23C)c1", "note": "[Compound 86]", "values": [
      {"measurement": "IC50", "result": "< 10", "unit": "nM"}
    ]},
    {"molecule": "C[C@H](C(=O)[C@H]1CC[C@H]2[C@@H]3CC[C@H]4C[C@](C)(O)CC[C@]4(C)[C@H]3CC[C@]12C)n1nccn1", "note": "[Compound 90, (R)-1-((3R,5S,8R,9S,10S,13S,14S,17S)-3-hydroxy-3,10,13-trimethylhexadecahydro-1H-cyclopenta[a]phenanthren-17-yl)-2-(2H-1,2,3-triazol-2-yl)propan-1-one]", "values": [
      {"measurement": "IC50", "result": "> 500", "unit": "nM"}
    ]},
    {"molecule": "C[C@@H](C(=O)[C@H]1CC[C@H]2[C@@H]3CC[C@H]4C[C@](C)(O)CC[C@]4(C)[C@H]3CC[C@]12C)n1nccn1", "note": "[Compound 91, (S)-1-((3R,5S,8R,9S,10S,13S,14S,17S)-3-hydroxy-3,10,13-trimethylhexadecahydro-1H-cyclopenta[a]phenanthren-17-yl)-2-(2H-1,2,3-triazol-2-yl)propan-1-one]", "values": [
      {"measurement": "IC50", "result": "50 to 100", "unit": "nM"}
    ]}
  ]
}
